This is an account of results in patent US9302988B2, “Fluoromethyl-substituted pyrrole carboxamides” (GRÜNENTHAL GMBH, priority 2012, dated 2016).

SMILES strings stand for the structures. Where only a bound is given, the exact number is not on record here.

In this experiment the target is T1, Human CaV2.2 channels (Homo sapiens, UniProt Q00975).
T1 construct: expressed in transfected cells
T1 sequence (Q00975 whole entry): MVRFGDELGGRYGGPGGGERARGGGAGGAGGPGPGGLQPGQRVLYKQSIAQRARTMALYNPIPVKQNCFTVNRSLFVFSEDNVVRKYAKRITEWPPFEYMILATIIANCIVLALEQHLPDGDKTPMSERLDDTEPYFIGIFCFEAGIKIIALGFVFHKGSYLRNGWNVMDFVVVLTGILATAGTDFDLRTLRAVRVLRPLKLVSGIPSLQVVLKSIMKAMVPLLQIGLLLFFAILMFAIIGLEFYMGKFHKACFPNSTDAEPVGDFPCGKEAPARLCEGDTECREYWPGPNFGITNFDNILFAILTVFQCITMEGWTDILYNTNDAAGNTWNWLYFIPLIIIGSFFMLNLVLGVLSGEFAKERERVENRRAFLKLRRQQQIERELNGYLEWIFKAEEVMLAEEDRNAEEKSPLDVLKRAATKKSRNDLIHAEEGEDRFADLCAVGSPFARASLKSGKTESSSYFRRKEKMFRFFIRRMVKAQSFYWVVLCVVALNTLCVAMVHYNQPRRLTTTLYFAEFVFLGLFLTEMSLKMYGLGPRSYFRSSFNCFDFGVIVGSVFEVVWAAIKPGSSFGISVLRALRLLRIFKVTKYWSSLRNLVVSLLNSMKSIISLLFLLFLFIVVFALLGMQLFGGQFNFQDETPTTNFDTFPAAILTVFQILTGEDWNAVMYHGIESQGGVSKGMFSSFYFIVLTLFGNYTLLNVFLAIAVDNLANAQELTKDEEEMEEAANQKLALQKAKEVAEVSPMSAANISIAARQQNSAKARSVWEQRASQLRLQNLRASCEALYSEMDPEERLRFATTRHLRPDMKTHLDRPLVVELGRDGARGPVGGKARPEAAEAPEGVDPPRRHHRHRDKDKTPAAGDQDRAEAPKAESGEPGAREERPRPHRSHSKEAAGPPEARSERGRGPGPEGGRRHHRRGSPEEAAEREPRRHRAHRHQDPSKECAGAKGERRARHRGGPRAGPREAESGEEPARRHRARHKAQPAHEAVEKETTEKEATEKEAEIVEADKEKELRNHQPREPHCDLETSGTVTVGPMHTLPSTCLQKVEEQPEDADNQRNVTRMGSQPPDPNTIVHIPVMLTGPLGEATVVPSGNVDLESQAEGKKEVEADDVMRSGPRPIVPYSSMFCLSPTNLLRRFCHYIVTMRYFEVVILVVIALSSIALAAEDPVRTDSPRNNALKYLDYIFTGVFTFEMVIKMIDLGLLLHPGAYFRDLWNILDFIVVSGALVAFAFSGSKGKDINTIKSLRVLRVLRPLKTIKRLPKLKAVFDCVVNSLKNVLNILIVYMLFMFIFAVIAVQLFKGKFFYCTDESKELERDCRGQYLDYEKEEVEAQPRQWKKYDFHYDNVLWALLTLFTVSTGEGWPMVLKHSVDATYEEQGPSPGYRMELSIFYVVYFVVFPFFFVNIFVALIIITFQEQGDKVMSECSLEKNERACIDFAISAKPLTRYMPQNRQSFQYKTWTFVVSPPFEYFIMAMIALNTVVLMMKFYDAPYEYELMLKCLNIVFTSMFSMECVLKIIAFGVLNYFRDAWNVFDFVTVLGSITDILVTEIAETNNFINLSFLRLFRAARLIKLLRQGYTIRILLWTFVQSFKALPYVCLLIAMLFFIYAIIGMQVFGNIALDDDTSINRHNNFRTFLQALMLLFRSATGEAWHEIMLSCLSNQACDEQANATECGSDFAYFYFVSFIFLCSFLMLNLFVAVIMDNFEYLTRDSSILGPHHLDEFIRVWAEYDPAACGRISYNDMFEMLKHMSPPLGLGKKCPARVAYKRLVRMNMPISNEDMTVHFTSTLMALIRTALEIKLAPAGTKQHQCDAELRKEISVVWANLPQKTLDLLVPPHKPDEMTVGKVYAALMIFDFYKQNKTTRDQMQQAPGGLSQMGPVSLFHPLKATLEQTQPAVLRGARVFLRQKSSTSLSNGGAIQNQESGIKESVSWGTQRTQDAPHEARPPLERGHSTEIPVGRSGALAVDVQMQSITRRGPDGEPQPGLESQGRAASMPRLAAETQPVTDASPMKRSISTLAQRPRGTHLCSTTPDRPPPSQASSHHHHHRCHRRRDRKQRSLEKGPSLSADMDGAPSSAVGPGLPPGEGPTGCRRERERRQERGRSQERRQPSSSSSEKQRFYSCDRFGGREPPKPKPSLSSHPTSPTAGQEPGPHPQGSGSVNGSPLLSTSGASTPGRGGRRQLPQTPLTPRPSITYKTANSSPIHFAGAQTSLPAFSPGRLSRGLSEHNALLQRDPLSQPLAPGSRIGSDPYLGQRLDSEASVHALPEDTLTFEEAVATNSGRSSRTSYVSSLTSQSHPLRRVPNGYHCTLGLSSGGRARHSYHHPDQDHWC
T1 sequence (P54289 25-1103, further chain): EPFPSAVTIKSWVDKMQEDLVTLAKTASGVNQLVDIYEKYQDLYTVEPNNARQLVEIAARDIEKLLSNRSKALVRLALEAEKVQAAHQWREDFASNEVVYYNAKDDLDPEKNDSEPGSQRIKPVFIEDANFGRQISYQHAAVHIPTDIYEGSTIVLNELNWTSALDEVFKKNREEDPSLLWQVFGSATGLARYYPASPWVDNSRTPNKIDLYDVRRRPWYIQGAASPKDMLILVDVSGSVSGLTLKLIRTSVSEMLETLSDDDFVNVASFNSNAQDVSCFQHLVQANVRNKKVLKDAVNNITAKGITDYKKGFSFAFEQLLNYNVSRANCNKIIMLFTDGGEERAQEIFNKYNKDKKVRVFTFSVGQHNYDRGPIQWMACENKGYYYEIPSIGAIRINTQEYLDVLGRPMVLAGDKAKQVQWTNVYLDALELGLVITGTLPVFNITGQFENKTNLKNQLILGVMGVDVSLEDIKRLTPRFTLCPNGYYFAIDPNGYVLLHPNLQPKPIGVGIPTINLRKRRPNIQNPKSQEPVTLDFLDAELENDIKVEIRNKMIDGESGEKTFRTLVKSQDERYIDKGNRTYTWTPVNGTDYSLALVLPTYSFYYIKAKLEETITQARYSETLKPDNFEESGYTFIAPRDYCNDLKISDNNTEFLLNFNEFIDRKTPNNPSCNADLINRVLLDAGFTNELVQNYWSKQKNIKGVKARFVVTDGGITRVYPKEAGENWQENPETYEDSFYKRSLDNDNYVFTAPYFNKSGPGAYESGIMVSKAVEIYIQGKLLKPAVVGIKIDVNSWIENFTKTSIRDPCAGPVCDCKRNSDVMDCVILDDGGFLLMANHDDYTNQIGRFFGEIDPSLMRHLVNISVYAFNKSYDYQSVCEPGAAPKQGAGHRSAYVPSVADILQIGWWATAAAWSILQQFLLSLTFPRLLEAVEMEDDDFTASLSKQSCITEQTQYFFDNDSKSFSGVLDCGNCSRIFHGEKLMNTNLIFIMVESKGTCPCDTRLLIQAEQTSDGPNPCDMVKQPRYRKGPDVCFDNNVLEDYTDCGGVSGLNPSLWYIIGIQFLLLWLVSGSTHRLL
T1 sequence (P54284 whole entry, further chain): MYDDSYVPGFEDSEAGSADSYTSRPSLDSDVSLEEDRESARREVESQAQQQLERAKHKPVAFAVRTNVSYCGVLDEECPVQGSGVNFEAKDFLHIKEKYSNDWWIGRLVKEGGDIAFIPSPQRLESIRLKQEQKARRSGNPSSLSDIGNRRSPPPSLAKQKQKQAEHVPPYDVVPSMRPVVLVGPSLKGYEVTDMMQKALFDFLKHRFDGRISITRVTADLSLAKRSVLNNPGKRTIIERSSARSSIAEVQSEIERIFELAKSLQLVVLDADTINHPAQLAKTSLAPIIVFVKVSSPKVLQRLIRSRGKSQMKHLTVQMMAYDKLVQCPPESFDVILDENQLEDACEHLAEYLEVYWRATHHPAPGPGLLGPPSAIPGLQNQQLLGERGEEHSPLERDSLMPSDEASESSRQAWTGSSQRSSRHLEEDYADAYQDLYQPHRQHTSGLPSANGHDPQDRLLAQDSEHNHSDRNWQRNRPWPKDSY
The experiment in a line: Fluorescent assay for CaV2.2 channels using potassium depolarization to induce channel opening (FLIPR, Fluo-4). As to conditions: 3 μM test compound, 30 mM KCl, HEK293 cells stably expressing human CaV2.2; read-out: %-Inhib (CaV2.2) @3 μM @30 mM KCl. Type of experiment: cell-based. The procedure, abridged: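 Channel block was read as the baseline-normalized peak Ca²⁺ signal (Fluo-4, 480/535 nm) after a high-KCl depolarizing addition (210 mM KCl buffer). Beforehand, compound sat 15 min at 25 °C on HEK293 cells carrying human CaV2.2, α2δ/β subunits and Kir2.3, in pH 7.4 buffer with 30 mM KCl.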
For `CN(C(=O)c1c(-c2ccc(Cl)cc2)cc(C(F)(F)F)n1Cc1ccccc1)C(C)(C)CCO` [SC-184, 1-Benzyl-3-(4-chlorophenyl)-N-(3-hydroxy-1,1-dimethyl-propyl)-N-methyl-5-(trifluoromethyl)-1H-pyrrole-2-carboxylic acid amide], the inhibition at 3 µM is 75 to 95%. On to `CS(=O)(=O)C1CCN(C(=O)c2c(-c3ccc(Cl)cc3)cc(C(F)(F)F)n2Cc2ccccc2)C1` (centres unmarked) [SC-185, [1-Benzyl-3-(4-chlorophenyl)-5-(trifluoromethyl)-1H-pyrrol-2-yl]-(3-methylsulfonyl-pyrrolidin-1-yl)-methanone], for which the inhibition at 3 µM was above 95%.

Turning to `CN(C(=O)c1c(-c2ccc(Cl)cc2)cc(C(F)(F)F)n1Cc1ccccc1)C(CO)C(C)(C)C` (centres unmarked) [SC-186, 1-Benzyl-3-(4-chlorophenyl)-N-[1-(hydroxymethyl)-2,2-dimethyl-propyl]-N-methyl-5-(trifluoromethyl)-1H-pyrrole-2-carboxylic acid amide], the inhibition at 3 µM was above 95%. `CN(CC(C)(C)C#N)C(=O)c1c(-c2ccc(Cl)cc2)cc(C(F)(F)F)n1Cc1ccccc1` [SC-187, 1-Benzyl-3-(4-chlorophenyl)-N-(2-cyano-2-methyl-propyl)-N-methyl-5-(trifluoromethyl)-1H-pyrrole-2-carboxylic acid amide]: the inhibition at 3 µM is above 95%. Take `CN(CC(C)(C)CN)C(=O)c1c(-c2ccc(Cl)cc2)cc(C(F)(F)F)n1Cc1ccccc1` [SC-188, N-(3-Amino-2,2-dimethyl-propyl)-1-benzyl-3-(4-chlorophenyl)-N-methyl-5-(trifluoromethyl)-1H-pyrrole-2-carboxylic acid amide]: the inhibition at 3 µM was in the range of 75 to 95%.

`CN(CCCS(C)(=O)=O)C(=O)c1c(-c2ccc(Cl)cc2)cc(C(F)(F)F)n1Cc1ccccc1` [SC-189, 1-Benzyl-3-(4-chlorophenyl)-N-methyl-N-(3-methylsulfonyl-propyl)-5-(trifluoromethyl)-1H-pyrrole-2-carboxylic acid amide]: the inhibition at 3 µM is above 95%. For `CCN(CCS(C)(=O)=O)C(=O)c1c(-c2ccc(Cl)cc2)cc(C(F)(F)F)n1Cc1ccccc1` [SC-190, 1-Benzyl-3-(4-chlorophenyl)-N-ethyl-N-(2-methylsulfonyl-ethyl)-5-(trifluoromethyl)-1H-pyrrole-2-carboxylic acid amide], the inhibition at 3 µM was above 95%.

With `CS(=O)(=O)CCNC(=O)c1c(-c2ccc(Cl)cc2)cc(C(F)(F)F)n1Cc1ccccc1` [SC-191, 1-Benzyl-3-(4-chlorophenyl)-N-(2-methylsulfonyl-ethyl)-5-(trifluoromethyl)-1H-pyrrole-2-carboxylic acid amide], the inhibition at 3 µM lay within 75 to 95%. On to `CCS(=O)(=O)CCN(C)C(=O)c1c(-c2ccc(Cl)cc2)cc(C(F)(F)F)n1Cc1ccccc1` [SC-192, 1-Benzyl-3-(4-chlorophenyl)-N-[2-(ethylsulfonyl)-ethyl]-N-methyl-5-(trifluoromethyl)-1H-pyrrole-2-carboxylic acid amide], for which the inhibition at 3 µM is above 95%. The same measure for `CN(C(=O)c1c(-c2ccc(Cl)cc2)cc(C(F)(F)F)n1Cc1ccccc1)C1CCS(=O)(=O)CC1` [SC-193, 1-Benzyl-3-(4-chlorophenyl)-N-(1,1-dioxo-thian-4-yl)-N-methyl-5-(trifluoromethyl)-1H-pyrrole-2-carboxylic acid amide]: above 95%.

As to `CC(C)S(=O)(=O)CCN(C)C(=O)c1c(-c2ccc(Cl)cc2)cc(C(F)(F)F)n1Cc1ccccc1` [SC-194, 1-Benzyl-3-(4-chlorophenyl)-N-[2-(isopropylsulfonyl)-ethyl]-N-methyl-5-(trifluoromethyl)-1H-pyrrole-2-carboxylic acid amide], the inhibition at 3 µM is above 95%.

Turning to `CN(CCC1CCCO1)C(=O)c1c(-c2ccc(Cl)cc2)cc(C(F)(F)F)n1Cc1ccccc1` (centres unmarked) [SC-195, 1-Benzyl-3-(4-chlorophenyl)-N-methyl-N-(2-tetrahydro-furan-2-yl-ethyl)-5-(trifluoromethyl)-1H-pyrrole-2-carboxylic acid amide], the inhibition at 3 µM is above 95%. Take `O=C(c1c(-c2ccc(Cl)cc2)cc(C(F)(F)F)n1Cc1ccccc1)N1CCS(=O)(=O)CC1` [SC-196, [1-Benzyl-3-(4-chlorophenyl)-5-(trifluoromethyl)-1H-pyrrol-2-yl]-(1,1-dioxo-[1,4]thiazinan-4-yl)-methanone]: the inhibition at 3 µM was above 95%. In the case of `CN(CC1CCCO1)C(=O)c1c(-c2ccc(Cl)cc2)cc(C(F)(F)F)n1Cc1ccccc1` (centres unmarked) [SC-197, 1-Benzyl-3-(4-chlorophenyl)-N-methyl-N-(tetrahydro-furan-2-yl-methyl)-5-(trifluoromethyl)-1H-pyrrole-2-carboxylic acid amide], the inhibition at 3 µM was above 95%. Regarding `CC(CS(C)(=O)=O)N(C)C(=O)c1c(-c2ccc(Cl)cc2)cc(C(F)(F)F)n1Cc1ccccc1` (centres unmarked) [SC-198, 1-Benzyl-3-(4-chlorophenyl)-N-methyl-N-(1-methyl-2-methylsulfonyl-ethyl)-5-(trifluoromethyl)-1H-pyrrole-2-carboxylic acid amide], the inhibition at 3 µM is above 95%. `CN(CC1CCC[C@@H]1O)C(=O)c1c(-c2ccc(Cl)cc2)cc(C(F)(F)F)n1Cc1ccccc1` (stereo partly drawn) [SC-199, 1-Benzyl-3-(4-chlorophenyl)-N-[[(2S)-2-hydroxy-cyclopentyl]-methyl]-N-methyl-5-(trifluoromethyl)-1H-pyrrole-2-carboxylic acid amide]: the inhibition at 3 µM was above 95%. The same measure for `CN(CC1CCC[C@H]1O)C(=O)c1c(-c2ccc(Cl)cc2)cc(C(F)(F)F)n1Cc1ccccc1` (stereo partly drawn) [SC-200, 1-Benzyl-3-(4-chlorophenyl)-N-[[(2R)-2-hydroxy-cyclopentyl]-methyl]-N-methyl-5-(trifluoromethyl)-1H-pyrrole-2-carboxylic acid amide]: above 95%.

`CS(=O)(=O)C1CN(C(=O)c2c(-c3ccc(Cl)cc3)cc(C(F)(F)F)n2Cc2ccccc2)C1` [SC-201, [1-Benzyl-3-(4-chlorophenyl)-5-(trifluoromethyl)-1H-pyrrol-2-yl]-(3-methylsulfonyl-azetidin-1-yl)-methanone]: the inhibition at 3 µM is 75 to 95%. The same measure for `CN(CC1CCCCO1)C(=O)c1c(-c2ccc(Cl)cc2)cc(C(F)(F)F)n1Cc1ccccc1` (centres unmarked) [SC-202, 1-Benzyl-3-(4-chlorophenyl)-N-methyl-N-(tetrahydro-pyran-2-yl-methyl)-5-(trifluoromethyl)-1H-pyrrole-2-carboxylic acid amide]: 75 to 95%.

For the compound `CN(CCN1CCCC1)CC(C)(C)CN(C)C(=O)c1c(-c2ccc(Cl)cc2)cc(C(F)(F)F)n1Cc1ccccc1` [SC-203, 1-Benzyl-3-(4-chlorophenyl)-N-[2,2-dimethyl-3-[methyl-(2-pyrrolidin-1-yl-ethyl)-amino]-propyl]-N-methyl-5-(trifluoromethyl)-1H-pyrrole-2-carboxylic acid amide], the inhibition at 3 µM is above 95%.

In the case of `Cc1cc(CN(C)C(=O)c2c(-c3ccc(Cl)cc3)cc(C(F)(F)F)n2Cc2ccccc2)on1` [SC-204, 1-Benzyl-3-(4-chlorophenyl)-N-methyl-N-[(3-methyl-isoxazol-5-yl)-methyl]-5-(trifluoromethyl)-1H-pyrrole-2-carboxylic acid amide], the inhibition at 3 µM was in the range of 75 to 95%. For `Cc1cc(CN(C)C(=O)c2c(-c3ccc(Cl)cc3)cc(C(F)(F)F)n2Cc2ccccc2)no1` [SC-205, 1-Benzyl-3-(4-chlorophenyl)-N-methyl-N-[(5-methyl-isoxazol-3-yl)-methyl]-5-(trifluoromethyl)-1H-pyrrole-2-carboxylic acid amide], the inhibition at 3 µM was above 95%. Consider `Cc1nnc(CN(C)C(=O)c2c(-c3ccc(Cl)cc3)cc(C(F)(F)F)n2Cc2ccccc2)o1` [SC-206, 1-Benzyl-3-(4-chlorophenyl)-N-methyl-N-[(5-methyl-[1,3,4]oxadiazol-2-yl)-methyl]-5-(trifluoromethyl)-1H-pyrrole-2-carboxylic acid amide], for which the inhibition at 3 µM was in the range of 75 to 95%.

For the compound `CN(Cc1ccncn1)C(=O)c1c(-c2ccc(Cl)cc2)cc(C(F)(F)F)n1Cc1ccccc1` [SC-207, 1-Benzyl-3-(4-chlorophenyl)-N-methyl-N-(pyrimidin-4-yl-methyl)-5-(trifluoromethyl)-1H-pyrrole-2-carboxylic acid amide], the inhibition at 3 µM is above 95%. Take `COC1CCN(C(=O)c2c(-c3ccc(Cl)cc3)cc(C(F)(F)F)n2Cc2ccccc2)CC1` [SC-208, [1-Benzyl-3-(4-chlorophenyl)-5-(trifluoromethyl)-1H-pyrrol-2-yl]-(4-methoxy-piperidin-1-yl)-methanone]: the inhibition at 3 µM was above 95%.

In the case of `CC(=O)N1CCN(C(=O)c2c(-c3ccc(Cl)cc3)cc(C(F)(F)F)n2Cc2ccccc2)CC1` [SC-209, 1-[4-[1-Benzyl-3-(4-chlorophenyl)-5-(trifluoromethyl)-1H-pyrrole-2-carbonyl]-piperazin-1-yl]-ethanone], the inhibition at 3 µM was above 95%. With `CN(Cc1cnccn1)C(=O)c1c(-c2ccc(Cl)cc2)cc(C(F)(F)F)n1Cc1ccccc1` [SC-210, 1-Benzyl-3-(4-chlorophenyl)-N-methyl-N-(pyrazin-2-yl-methyl)-5-(trifluoromethyl)-1H-pyrrole-2-carboxylic acid amide], the inhibition at 3 µM was 75 to 95%. Take `CN(Cc1nccn1C)C(=O)c1c(-c2ccc(Cl)cc2)cc(C(F)(F)F)n1Cc1ccccc1` [SC-212, 1-Benzyl-3-(4-chlorophenyl)-N-methyl-N-[(1-methyl-1H-imidazol-2-yl)-methyl]-5-(trifluoromethyl)-1H-pyrrole-2-carboxylic acid amide]: the inhibition at 3 µM is above 95%. As for `CC(C)N(C)C(=O)c1c(-c2ccc(Cl)cc2)cc(C(F)(F)F)n1Cc1ccccc1` [SC-213, 1-Benzyl-3-(4-chlorophenyl)-N-isopropyl-N-methyl-5-(trifluoromethyl)-1H-pyrrole-2-carboxylic acid amide], the inhibition at 3 µM is above 95%.
